Experimental data: US20240343733A1, “COMPOUNDS FOR TARGETING DEGRADATION OF IRAK4 PROTEINS” (BIOGEN MA INC., priority 2021, published 2024)

These molecules were tested against T1, IRAK4 (Homo sapiens, UniProt Q9NWZ3) (assay: IRAK4 Degradation Assay, HiBiT Method). Conditions: 293T cells expressing HiBiT-tagged IRAK4, 6 hours.
T1 construct: 293Tcells expressing HiBiT-tagged IRAK4 were then added into 384-well plates
T1 sequence (Q9NWZ3 1-460): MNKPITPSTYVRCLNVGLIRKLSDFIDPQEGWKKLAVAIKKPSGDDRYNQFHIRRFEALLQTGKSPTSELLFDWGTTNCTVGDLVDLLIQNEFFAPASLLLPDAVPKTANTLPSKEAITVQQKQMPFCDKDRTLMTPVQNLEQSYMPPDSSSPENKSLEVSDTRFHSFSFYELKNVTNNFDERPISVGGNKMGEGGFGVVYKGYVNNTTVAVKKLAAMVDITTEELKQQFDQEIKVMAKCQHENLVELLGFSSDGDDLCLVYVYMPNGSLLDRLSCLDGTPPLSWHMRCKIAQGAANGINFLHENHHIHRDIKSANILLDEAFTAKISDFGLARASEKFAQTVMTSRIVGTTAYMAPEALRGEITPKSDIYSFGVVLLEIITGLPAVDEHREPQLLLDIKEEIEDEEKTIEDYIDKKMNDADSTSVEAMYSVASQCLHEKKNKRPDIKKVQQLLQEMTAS
Format: cell-based
Outline: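 293T cells with HiBiT knocked in at the C-terminus of endogenous IRAK4, 10,000 per well, treated 6 h at 37 °C with an 11-point half-log series ([…]), in duplicate. Remaining IRAK4 read by Nano-Glo HiBiT lytic luminescence against DMSO-only and media-only controls.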

Row | SMILES | DC50 [nM]
1 | CC(C)Oc1cc2nc(C3CCN(CC(=O)N4CCC(c5cc(F)c(C6CCC(=O)NC6=O)cc5F)CC4)CC3)cn2cc1C(=O)Nc1cnn2cccnc12 (stereo not drawn) [Example 100, 2-[1-[2-[4-[4-(2,6-dioxo-3-piperidyl)-2,5-difluoro-phenyl]-1-piperidyl]-2-oxo-ethyl]-4-piperidyl]-7-isopropoxy-N-pyrazolo[1,5-a]pyrimidin-3-yl-imidazo[1,2-a]pyridine-6-carboxamide] | 10 to 100
2 | CC(C)Oc1cc2nc(C3CCN(CC(=O)N4CCC(c5ccc(C6(F)CCC(=O)NC6=O)cc5)CC4)CC3)cn2cc1C(=O)Nc1cccc(C(F)F)n1 (stereo not drawn) [Example 101, N-[6-(difluoromethyl)-2-pyridyl]-2-[1-[2-[4-[4-(3-fluoro-2,6-dioxo-3-piperidyl)phenyl]-1-piperidyl]-2-oxo-ethyl]-4-piperidyl]-7-isopropoxy-imidazo[1,2-a]pyridine-6-carboxamide] | 10 to 100
3 | CC(C)Oc1cc2nc(C3CCN(CC(=O)N4CCC(c5ccc(C6(F)CCC(=O)NC6=O)cc5)CC4)CC3)cn2cc1C(=O)Nc1ccn(C)n1 (stereo not drawn) [Example 102, 2-[1-[2-[4-[4-(3-fluoro-2,6-dioxo-3-piperidyl)phenyl]-1-piperidyl]-2-oxo-ethyl]-4-piperidyl]-7-isopropoxy-N-(1-methylpyrazol-3-yl)imidazo[1,2-a]pyridine-6-carboxamide] | 10 to 100
4 | CC(C)Oc1cc2nc(C3CCN(CC(=O)N4CCC(c5ccc(NC6CCC(=O)NC6=O)cc5)CC4)CC3)cn2cc1C(=O)Nc1cccc(C(F)(F)F)n1 (stereo not drawn) [Example 103, 2-(1-(2-(4-(4-((2,6-dioxopiperidin-3-yl)amino)phenyl)piperidin-1-yl)-2-oxoethyl)piperidin-4-yl)-7-isopropoxy-N-(6-(trifluoromethyl)pyridin-2-yl)imidazo[1,2-a]pyridine-6-carboxamide] | 10 to 100
5 | CC(C)Oc1cc2nc(C3CCN(CC(=O)N4CCC(c5ccc(NC6CCC(=O)NC6=O)cc5)CC4)CC3)cn2cc1C(=O)Nc1cccc(C(F)(F)F)c1 (stereo not drawn) [Example 106, 2-[1-[2-[4-[4-[(2,6-dioxo-3-piperidyl)amino]phenyl]-1-piperidyl]-2-oxo-ethyl]-4-piperidyl]-7-isopropoxy-N-[3-(trifluoromethyl)phenyl]imidazo[1,2-a]pyridine-6-carboxamide] | 100 to 500
6 | CC(C)Oc1cc2nc(C3CCN(CC(=O)N4CCC(c5ccc(NC6CCC(=O)NC6=O)cc5)CC4)CC3)cn2cc1C(=O)Nc1ccccn1 (stereo not drawn) [Example 109, 2-[1-[2-[4-[4-[(2,6-dioxo-3-piperidyl)amino]phenyl]-1-piperidyl]-2-oxo-ethyl]-4-piperidyl]-7-isopropoxy-N-(2-pyridyl)imidazo[1,2-a]pyridine-6-carboxamide] | 10 to 100
7 | CC(C)Oc1cc2nc(C3CCN(CC(=O)N4CC5(C4)CN(c4ccc(C6CCC(=O)NC6=O)cc4)C5)CC3)cn2cc1C(=O)Nc1cccc(C(F)F)n1 (stereo not drawn) [Example 110, N-[6-(difluoromethyl)-2-pyridyl]-2-[1-[2-[6-[4-(2,6-dioxo-3-piperidyl)phenyl]-2,6-diazaspiro[3.3]heptan-2-yl]-2-oxo-ethyl]-4-piperidyl]-7-isopropoxy-imidazo[1,2-a]pyridine-6-carboxamide] | 10 to 100
8 | CC(C)Oc1cc2nc(C3CCN(CC(F)=C4CCN(c5ccc(NC6CCC(=O)NC6=O)cc5)CC4)CC3)cn2cc1C(=O)Nc1cccc(C(F)F)n1 (stereo not drawn) [Example 111, N-(6-(difluoromethyl)pyridin-2-yl)-2-(1-(2-(1-(4-((2,6-dioxopiperidin-3-yl)amino)phenyl)piperidin-4-ylidene)-2-fluoroethyl)piperidin-4-yl)-7-isopropoxyimidazo[1,2-a]pyridine-6-carboxamide] | 10 to 100
9 | CC(C)Oc1cc2nc(C3CCN(CC(F)=C4CCN(c5ncc(C6CCC(=O)NC6=O)cc5F)CC4)CC3)cn2cc1C(=O)Nc1cccc(C(F)F)n1 (stereo not drawn) [Example 112, N-[6-(difluoromethyl)-2-pyridyl]-2-[1-[2-[1-[5-(2,6-dioxo-3-piperidyl)-3-fluoro-2-pyridyl]-4-piperidylidene]-2-fluoro-ethyl]-4-piperidyl]-7-isopropoxy-imidazo[1,2-a]pyridine-6-carboxamide] | 10 to 100
